Measured values as given in PMC5449454, “Anti-Double-Stranded DNA IgG Participates in Renal Fibrosis through Suppressing the Suppressor of Cytokine Signaling 1 Signals” (Frontiers in Immunology, 2017).

Columns and labels:
[1] = tested on: anti-dsDNA IgG binding to mesangial cells; test: Inhibition cell surface ELISA, anti-dsDNA IgG binding to mesangial cells; type: cell-based, murine; settings: anti-dsDNA IgG premixed with D-form or scrambled ALW peptide; three independent experiments
Experimental: (§1) Common ELISAs (for binding to dsDNA or peptide) and inhibition ELISAs were performed as previously described ([8], [35]). Briefly, the KIR ELISA was carried out by adding biotinylated KIR peptide (DTHFRTFRSHSDYRRI, 5 µg/ml) to streptavidin-coated 96-well plates. For inhibition with KIR (or ALW) peptide, anti-dsDNA IgG (2 µg/ml) was pre-incubated with serially diluted peptide (from 0.04 to 80 µg/ml), and then transferred to antigen-coated 96-well plates. Alkaline phosphatase-conjugated goat anti-mouse IgG (2 µg/ml; Southern Biotech) was used as secondary antibody. Similarly, for inhibition with anti-dsDNA IgG, the FITC-labeled JAK2 loop peptide (LPQDKEYYKVKEP, 0.2 µg/ml) was pre-incubated with serially diluted anti-dsDNA IgG (from 0.02 to 20 µg/ml) before transfer to KIR-coated plates, which were detected for fluorescein intensity under a Perkin Elmer Reader (Winpact Scientific, Irvine, CA, USA). Cell surface ELISA was performed by growing mesangial cells in 96-well plates ([8], [35]). All peptides were synthesized by Sangon Biotech Company (Shanghai, China).

kidneys of SCID mice = test: Renal mRNA levels by real-time PCR, SCID mice; type: in vivo; settings: i.v.
Excerpt: Renal biopsies were obtained from patients with LN (n = 7), who had serum positivity of anti-dsDNA IgG (Table S1 in Supplementary Material). The diagnosis of LN was made based on the histological features of renal biopsies. For normal human controls, sera and non-lesional tissues were taken from patients (n = 5) who underwent surgical nephrectomy due to renal cell carcinoma or renal rupture (Table S1 in Supplementary Material). There was no statistical difference in term of age between the LN patients and the controls (p > 0.05). […] The MRL/lpr and MRL/MpJ mice (female, 12 or 24 weeks old, n = 5 each group) as well as SCID mice (female, 8 weeks old, n = 5 each group) were bred in the animal facility of Xi’an Jiaotong University Health Science Center. Urine, sera, and renal tissues were harvested from MRL/lpr and MRL/MpJ mice. Proteinuria was quantitated by the Coomassie brilliant blue method ([32]). All data about MRL/lpr and MRL/MpJ mice referred to that at age of 24 weeks unless otherwise noted. These SCID mice received intravenous injections of anti-dsDNA or control IgG at a dose of 100 µg twice weekly, which lasted for 4 weeks (n = 5 each group). Then, both serum and kidney samples were collected from SCID mice. This study was carried out in accordance with the recommendations of the guidelines of the Hospital Research Ethics Committee with written informed consent from all subjects. All subjects gave written informed consent in accordance with the Declaration of Helsinki. The protocol was approved by the Hospital Research Ethics Committee.
As previously described ([8]), total RNA was extracted from fresh tissues or cultured cells, followed by reverse transcription. The 7900HT Fast PCR System (Applied Biosystems, Carlsbad, CA, USA) was used for PCR, and SYBR Green Master Mixes (Invitrogen, Grand Island, NY, USA) was used as fluorescent dye. The sequences of primers (Jieqing Biotech) are listed in Table S2 in Supplementary Material.

[2] = tested on: anti-dsDNA IgG binding to SOCS1-KIR peptide; test: Inhibition ELISA, anti-dsDNA IgG binding to SOCS1-KIR peptide; parameters: species or system murine; settings: anti-dsDNA IgG 2 µg/ml pre-incubated with serially diluted peptide (0.04 to 80 µg/ml); three independent experiments
Experimental: as §1

[3] = D-form ALW plus anti-dsDNA IgG, n = 5, versus anti-dsDNA IgG alone
[4] = anti-dsDNA IgG pre-mixed with D-form ALW, n = 5

**Q.** “ALWPPNLHAWVP [D-form ALW, ALW peptide with two terminal residues A and P replaced with D-form ones]” was tested. Which “inhibition of anti-dsDNA IgG binding to mesangial cells” value [1] did it give?
**A.** inhibited

**Q.** What about the “renal JAK2 mRNA level, ALW plus anti-dsDNA IgG” value (kidneys of SCID mice; [3]) of the same sequence?
**A.** reduced

**Q.** What about the “renal SOCS1 mRNA level, ALW plus anti-dsDNA IgG” value (kidneys of SCID mice; [3]) of the same sequence?
**A.** not affected

**Q.** And the “renal STAT1 mRNA level, ALW plus anti-dsDNA IgG” value (kidneys of SCID mice; [3])?
**A.** reduced

**Q.** What about the “renal PDGFB mRNA level, ALW plus anti-dsDNA IgG” value (kidneys of SCID mice; [4]) of the same sequence?
**A.** substantial decrease

**Q.** And the “renal TGF-β1 mRNA level, ALW plus anti-dsDNA IgG” value (kidneys of SCID mice; [4])?
**A.** substantial decrease

**Q.** What about the “renal TWEAK mRNA level, ALW plus anti-dsDNA IgG” value (kidneys of SCID mice; [4]) of the same sequence?
**A.** substantial decrease

**Q.** And the “inhibition of anti-dsDNA IgG binding to SOCS1-KIR peptide” value [2]?
**A.** inhibited
